In EP1203770A1 (priority 1992, dated 1994):
Like-named read-outs stand apart in the source and are kept apart here.

Target: T1, HIV-1 protease (Human immunodeficiency virus type 1 group M subtype B, UniProt P04585)
T1 construct: The protease (or proteinase), consisting of only 99 amino acids, is among the smallest enzymes known
Assay: In vitro HIV protease inhibitory assay (HIV Protease FITC Assay)
Assay type: biochemical
Conditions: for Ki: read-out: HIV-1 FITC Ki
How it was run: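 Percent inhibition was read as fluorescence after avidin-bead capture and filtration separated FITC cleavage product from biotinylated substrate. Enzyme and substrate reacted 1 h, RT, dark, at pH 5.5 (0.1 M sodium acetate, 1.0 M NaCl, 0.05% NP-40).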

[1] = HIV-1 Dose 0.123 uM, read-out: HIV-1 Protease % Inhib
[2] = HIV-1 Dose 0.370 uM, read-out: HIV-1 Protease % Inhib
[3] = HIV-1 Dose 1.100 uM, read-out: HIV-1 Protease % Inhib
[4] = HIV-1 Dose 3.300 uM, read-out: HIV-1 Protease % Inhib
[5] = HIV-1 Dose 10.000 uM, read-out: HIV-1 Protease % Inhib
[6] = HIV-1 Dose 30.000 uM, read-out: HIV-1 Protease % Inhib
[7] = read-out: HIV-1 Protease % Inhib

Compound | inhibition at 0.123 µM [1] [%] | inhibition at 0.37 µM [2] [%] | inhibition at 1.1 µM [3] [%] | inhibition at 3.3 µM [4] [%] | inhibition at 10 µM [5] [%] | inhibition at 30 µM [6] [%] | Ki [nM] | inhibition at 100 µM (HIV-1 Dose 100.000 uM, read-out: HIV-1 Protease % Inhib) [%] | inhibition at 0.123 µM [7] [%] | inhibition at 0.37 µM [7] [%] | inhibition at 1.1 µM [7] [%] | inhibition at 3.3 µM [7] [%] | inhibition at 10 µM [7] [%] | inhibition at 30 µM [7] [%]
CCC(Cc1cccc(Br)c1)c1cc(O)c(C(c2ccccc2)C2CC2)c(=O)o1 (stereo not drawn) [Example 159, 3-(α-cyclopropylbenzyl)-4-hydroxy-6-(α-ethyl-m-bromophenethyl)-2H-pyran-2-one] | < 10 | 20.6 | 56.4 | 76.2 | 92.3 | 95.1 | 207 |  |  |  |  |  |  | 
CCC(Cc1ccc(C(F)(F)F)cc1)c1cc(O)c(C(c2ccccc2)C2CC2)c(=O)o1 (stereo not drawn) [Example 160, 3-(α-cyclopropylbenzyl)-4-hydroxy-6-(α-ethyl-p-triflurormethylphenethyl)-2H-pyran-2-one] | < 10 | 12.2 | 39.4 | 78.2 | 89.7 | 92.1 |  |  |  |  |  |  |  | 
CCC(Cc1cccc(C(F)(F)F)c1)c1cc(O)c(C(c2ccccc2)C2CC2)c(=O)o1 (stereo not drawn) [Example 161, 3-(α-cyclopropylbenzyl)-4-hydroxy-6-(α-ethyl-m-triflurormethylphenethyl)-2H-pyran-2-one] | < 10 | < 10 | 41.8 | 78 | 96.5 | 105 |  |  |  |  |  |  |  | 
CCC(Cc1ccccc1C(F)(F)F)c1cc(O)c(C(c2ccccc2)C2CC2)c(=O)o1 (stereo not drawn) [Example 162, 3-(α-cyclopropylbenzyl)-4-hydroxy-6-(α-ethyl-o-triflurormethylphenethyl)-2H-pyran-2-one] | < 10 | < 10 | < 10 | 34.4 | 52 | 72.3 |  |  |  |  |  |  |  | 
CCC(Cc1ccc(OC)cc1)c1cc(O)c(C(c2ccccc2)C2CC2)c(=O)o1 (stereo not drawn) [Example 163, 3-(α-cyclopropylbenzyl)-4-hydroxy-6-(α-ethyl-p-methoxyphenethyl)-2H-pyran-2-one] | < 10 | 30.8 | 65.6 | 88.7 | 101 | 98.4 | 172 |  |  |  |  |  |  | 
CCC(Cc1cccc(OC)c1)c1cc(O)c(C(c2ccccc2)C2CC2)c(=O)o1 (stereo not drawn) [Example 164, 3-(α-cyclopropylbenzyl)-4-hydroxy-6-(α-ethyl-m-methoxyphenethyl)-2H-pyran-2-one] | < 10 | 16.5 | 50 | 68.8 | 84.8 | 88.2 | 185 |  |  |  |  |  |  | 
O=c1oc(CCc2ccc(F)cc2)cc(O)c1C(c1ccccc1)C1CC1 (stereo not drawn) [Example 165, 3-(α-cyclopropylbenzyl)-4-hydroxy-6-(p-fluorophenethyl)-2H-pyran-2-one] | < 10 | 10.5 | 32.9 | 60 | 80.7 | 94.1 |  |  |  |  |  |  |  | 
O=c1oc(CCc2ccc(Cl)cc2)cc(O)c1C(c1ccccc1)C1CC1 (stereo not drawn) [Example 166, 3-(α-cyclopropylbenzyl)-4-hydroxy-6-(p-chlorophenethyl)-2H-pyran-2-one] | < 10 | < 10 | < 10 | 39.8 | 62.3 | 80.9 |  | 97.8 |  |  |  |  |  | 
O=c1oc(CCc2ccc(Br)cc2)cc(O)c1C(c1ccccc1)C1CC1 (stereo not drawn) [Example 167, 3-(α-cyclopropylbenzyl)-4-hydroxy-6-(p-bromophenethyl)-2H-pyran-2-one] | < 10 | < 10 | 18.4 | 37.1 | 60.4 | 81.1 |  |  |  |  |  |  |  | 
C=CC(C1=C(O)CC(Cc2ccccc2)(c2ccccc2)OC1=O)c1ccccc1 (stereo not shown) [Example 168, 5,6-Dihydro-4-hydroxy-6-phenyl-6-(phenylmethyl)-3-(1-phenyl-2-propenyl)-2H-pyran-2-one] | < 10 | < 10 | < 10 | 10.4 | 43.4 | 48 |  |  |  |  |  |  |  | 
CCC(C1=C(O)CC(Cc2ccccc2)(c2ccccc2)OC1=O)c1ccccc1 (stereo not shown) [Example 169, 5,6-Dihydro-4-hydroxy-6-phenyl-6-(phenylmethyl)-3-(1-phenylpropyl)-2H-pyran-2-one] |  |  |  |  |  |  |  |  | < 10 | < 10 | < 10 | < 10 | 33.2 | 54.8
